The test system of series [1] is Naja kaouthia.
Description: Protective activity against Naja kaouthia venom-induced mortality in Swiss albino mouse at 100 mmol, iv by measuring venom LD50 administered immediately after venom injection measured after 24 hrs (Rvb = 2.82 ug)
Series [2] concerns Daboia russelii.
For series [3], the system named is Naja kaouthia. This is another data set of the same source.
The nature of series [4]: Lipophilicity, log P of compound. Format: physicochemical. As to conditions: octanol/water; read-out: logP.
In series [5] the test system is Daboia russelii. The experiment in a line: (§1) Protective activity against Daboia russellii venom-induced hemorrhage in intradermally dosed Swiss albino mouse at 100 mmol assessed as hemorhagic lesion by measuring minimal […] dose preincubated with venom for 1 hr followed by administration to mouse measured after 24 hrs (reference value: 5 ug). It counts as functional.

The subject of series [6] is Daboia russelii. The experiment in a line: (§2) Protective activity against Daboia russellii venom-induced mortality in Swiss albino mouse at 100 mmol, iv by measuring venom LD50 administered immediately after venom injection measured after 24 hrs (reference value: 2.28ug). Format: functional.
Series [7] concerns Daboia russelii. Put plainly: (§3) Protective activity against Daboia russellii venom-induced hemorrhage in Swiss albino mouse at 100 mmol, iv assessed as hemorhagic lesion by measuring […] administered immediately after venom injection measured after 24 hrs (Rvb =5 ug). Format: functional.
Series [8] in a line: Protective activity against Daboia russellii venom-induced mortality in Swiss albino mouse at 100 mmol, iv administered immediately after venom injection measured after 24 hrs relative to untreated control. Format: functional, Daboia russelii.
Series [9] in a line: Protective activity against Naja kaouthia venom-induced mortality in Swiss albino mouse at 100 mmol, iv administered immediately after venom injection measured after 24 hrs relative to untreated control. It counts as functional.
Series [10] concerns Naja kaouthia. Put plainly: Protective activity against Naja kaouthia venom-induced mortality in iv dosed Swiss albino mouse assessed as administered 30 to 60 mins after venom injection. Format: functional, organism-based.
Series [11] can be described thus: Protective activity against Daboia russellii venom-induced hemorrhage in intradermally dosed Swiss albino mouse at 100 mmol assessed as hemorhagic lesion preincubated with venom for 1 hr followed by administration to mouse measured after 24 hrs relative to untreated control. Format: functional, Daboia russelii.
Series [12] concerns Daboia russelii. The experiment in a line: (§4) Protective activity against Daboia russellii venom-induced defibrinogenation in iv dosed Swiss albino mouse assessed as venom level causing blood coagulation at 100 mmol preincubated with venom for 1 hr followed by administration to mouse relative to untreated. It counts as functional.
Series [13] is described as follows: Protective activity against Naja kaouthia venom-induced mortality in Swiss albino mouse at 100 mmol, iv by measuring venom LD50 preincubated with venom for 1 hr followed by administration to mouse measured after 24 hrs (reference value: 2.82 ug). It counts as functional.
The nature of series [14]: Protective activity against Daboia russellii venom-induced mortality in Swiss albino mouse at 100 mmol, iv preincubated with venom for 1 hr followed by administration to mouse measured after 24 hrs relative to untreated control. It counts as functional, Daboia russelii.
Series [15] deals with Daboia russelii. The experiment in a line: (§5) Protective activity against Daboia russellii venom-induced defibrinogenation in iv dosed Swiss albino mouse assessed as blood coagulation at 100 mmol administered immediately after venom injection relative to untreated control. It counts as functional.
Series [16] is described as follows: Protective activity against Daboia russellii venom-induced hemorrhage in Swiss albino mouse at 100 mmol, iv assessed as hemorhagic lesion administered immediately after venom injection measured after 24 hrs relative to untreated control. It counts as functional, Daboia russelii.
Series [17] can be described thus: Protective activity against Naja kaouthia venom-induced mortality in Swiss albino mouse at 100 mmol, iv by measuring venom LD50 administered immediately after venom injection measured after 24 hrs (reference value: 2.82 ug). Format: functional.
Series [18] is described as follows: as §1. It counts as functional, Daboia russelii.
A short description of series [19]: as §2. Format: functional, Daboia russelii.
For series [20], the system named is Daboia russelii. Put plainly: Protective activity against Daboia russellii venom-induced coagulation in goat plasma assessed as increase in plasma recalcification time at 20 mmol preincubated with venom for 1 hr followed by plasma addition. Format: functional, cell-free.
A short description of series [21]: Protective activity against Daboia russellii venom-induced defibrinogenation in iv dosed Swiss albino mouse assessed as venom level causing blood coagulation at 100 mmol preincubated with venom for 1 hr followed by administration to mouse (reference value: 2.5 ug). Format: functional, Daboia russelii.
Series [22] is described as follows: Protective activity against Naja kaouthia venom-induced mortality in Swiss albino mouse at 100 mmol, iv preincubated with venom for 1 hr followed by administration to mouse measured after 24 hrs relative to untreated control. Format: functional.
The nature of series [23]: as §3. Format: functional, Daboia russelii.
The nature of series [24]: Protective activity against Daboia russellii venom-induced mortality in iv dosed Swiss albino mouse administered 60 mins after venom injection relative to untreated control. Format: functional, Daboia russelii.
Series [25] can be described thus: Protective activity against Daboia russellii venom-induced mortality by measuring venom LD50 in Swiss albino mouse at 100 mmol, iv preincubated with venom for 1 hr followed by administration to mouse measured after 24 hrs (reference value: 2.28 ug). Format: functional, Daboia russelii.
The nature of series [26]: Protective activity against Daboia russellii venom-induced defibrinogenation in iv dosed Swiss albino mouse assessed as venom level causing blood coagulation at 100 mmol administered immediately after venom injection (reference value: 2.5 ug). Format: functional, Daboia russelii.
A short description of series [27]: as §4. Format: functional, Daboia russelii.
Series [28] concerns the target T1, Basic phospholipase A2 VRV-PL-VIIIa (Daboia russelii) (UniProt P59071).
T1 sequence (whole entry): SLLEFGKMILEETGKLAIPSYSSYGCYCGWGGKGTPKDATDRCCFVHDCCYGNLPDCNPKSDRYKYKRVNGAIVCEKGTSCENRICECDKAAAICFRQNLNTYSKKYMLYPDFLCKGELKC
Put plainly: Inhibition of Daboia russellii venom PLA2 activity assessed as decrease in coagulation time of egg yolk at 20 mmol preincubated with venom for 1 hr followed by egg yolk addition measured after 1 hr.

The nature of series [29]: as §5. Format: functional, Daboia russelii.
In series [30] the test system is Daboia russelii. Put plainly: Protective activity against Daboia russellii venom-induced mortality in iv dosed Swiss albino mouse administered immediately after venom injection relative to untreated control. It counts as functional, organism-based.
Series [31] in a line: Protective activity against Daboia russellii venom-induced mortality in iv dosed Swiss albino mouse administered 30 mins after venom injection relative to untreated control. It counts as functional, Daboia russelii.
Series [32] in a line: Protective activity against Daboia russellii venom-induced hemorrhage in intradermally dosed Swiss albino mouse at 12 mmol assessed as hemorhagic lesion by measuring minimal […] dose preincubated with venom for 1 hr followed by administration to mouse measured after 24 hrs (reference value: 5 ug). Format: functional, Daboia russelii.
Series [33] is described as follows: Protective activity against Naja kaouthia venom-induced mortality in Swiss albino mouse at 12 mmol, iv by measuring venom LD50 preincubated with venom for 1 hr followed by administration to mouse measured after 24 hrs (reference value: 2.82 ug). Format: functional.
In series [34] the test system is Naja kaouthia. Put plainly: Protective activity against Naja kaouthia venom-induced mortality in Swiss albino mouse at 12 mmol, iv by measuring venom LD50 administered immediately after venom injection measured after 24 hrs (reference value: 2.82 ug). Format: functional, organism-based.
Series [35] can be described thus: Protective activity against Daboia russellii venom-induced mortality by measuring venom LD50 in Swiss albino mouse at 12 mmol, iv preincubated with venom for 1 hr followed by administration to mouse measured after 24 hrs (reference value: 2.28 ug). It counts as functional, Daboia russelii.
Series [36] in a line: Protective activity against Daboia russellii venom-induced mortality in Swiss albino mouse at 12 mmol, iv by measuring venom LD50 administered immediately after venom injection measured after 24 hrs (reference value: 2.28ug). Format: functional, Daboia russelii.
A short description of series [37]: Protective activity against Daboia russellii venom-induced hemorrhage in Swiss albino mouse at 12 mmol, iv assessed as hemorhagic lesion by measuring […] administered immediately after venom injection measured after 24 hrs (Rvb =5 ug). It counts as functional, Daboia russelii.

Activity calls are given as the source filed them. No cut-off for these calls is given here.

As a reminder, the logP is the decadic logarithm of the partition coefficient of the neutral form, usually between octanol and water.

Consider `O=Cc1ccccc1` [BENZALDEHYDE], for which the LD50 result with Naja kaouthia [1], with Daboia russelii [2], with Naja kaouthia [3] and in the series with Daboia russelii [6] was “inactive” in each case. Besides, the logP in [4] amounted to 1.47. In addition, the MHC entry with Daboia russelii [5] and with Daboia russelii [7] was “inactive” each time.

For the compound `O=Cc1ccc(O)cc1O`, the “fold change (FC)” value in series [8] worked out at 2.5; in series [9], 1.6; in [11], 10; in series [14], 2.6; in [16], 1; in series [22], 1. Besides, the result in the series on Naja kaouthia [10] was inactive. For the same compound, the “fold change (FC)” value in the series on Daboia russelii [12] and in the series with Daboia russelii [15] was “inactive” in each case. The LD50 came out at 3 µg in [13], 8 µg in [17], 100 µg in [19] and 6 µg in series [25]. For the same compound, in series [4], the logP came to 1.19. Moreover, the MHC in series [18] came to 50 µg; in series [23], 5 µg. Moreover, in the series on Daboia russelii [20], the outcome was Active. Also, the Activity in series [21] turned out to be 2.5 µg; in series [24] it was 10%; in series [26], 2.5 µg.

Turning to `COc1cccc(CO)c1O`, the “fold change (FC)” value in series [8] was determined as 3.75; in [9], 2; in series [11], 8; in [27], 10; in series [14], 11.2; in series [29], 1.5. For the same compound, the “fold change (FC)” value in [16] came out at 2; in series [22] it was 3.2. The outcome with Naja kaouthia [10] was inactive. The inhibition result in series [28] was “Active”. Besides, the LD50 in series [13] was found to be 9 µg; in series [17] it was 10 µg; in [19], 150 µg; in series [25] it was 25 µg. In addition, the outcome in the series with Daboia russelii [30] and in the series on Daboia russelii [20] was Active. Moreover, the MHC in series [18] is 40 µg; in series [23] it was 10 µg. In addition, the Activity amounted to 25 µg in [21], 40% in series [31], 10% in series [24] and 3.5 µg in [26].

Regarding `OCc1cccc(O)c1O`, the “fold change (FC)” value is listed as 2.5 in series [8]; 2 in [9]; 3 in series [11]; 8 in series [14]; 2 in [16]; 2.1 in series [22]. Moreover, the result in the series with Naja kaouthia [10] was inactive. For the same compound, the “fold change (FC)” value in the series with Daboia russelii [12] and with Daboia russelii [15] was “inactive” in each case. In addition, the LD50 was 6 µg in series [13], 10 µg in series [17], 100 µg in series [19] and 18 µg in [25]. The figures for the MHC in [18] and in [23] were 15 µg and 10 µg, respectively. The result with Daboia russelii [20] was Active. Also, the Activity in series [21] and in [26] was 2.5 µg throughout.

For `O=[N+]([O-])c1ccc2c(c1)OCO2`, the LD50 result in the series on Naja kaouthia [1], in the series on Daboia russelii [2], in the series on Naja kaouthia [3] and in the series with Daboia russelii [6] was “inactive” each time. Further, the logP in series [4] was 1.47. Besides, the MHC result in the series with Daboia russelii [5] and in the series on Daboia russelii [7] was “inactive” throughout.

Turning to `O=Cc1ccccc1O`, in the series on Daboia russelii [5], the MHC entry is “inactive”. Further, in [23], the MHC amounted to 10 µg.

Take `CC(=O)Oc1ccc(C=O)c(O)c1`: the LD50 result in the series on Naja kaouthia [1], in the series with Daboia russelii [2], in the series with Naja kaouthia [3] and with Daboia russelii [6] was “inactive” in each case. Moreover, the logP in series [4] came to 0.94. Also, the MHC result in the series with Daboia russelii [5] and with Daboia russelii [7] was “inactive” throughout.

On to `CC(=O)Oc1ccccc1C(=O)O` [ASPIRIN], for which the values for the MHC in [32] and in [37] were 100 µg and 10 µg, respectively. Also, the results for the LD50 in [33], in [35] and in series [36] were 3 µg, 6.6 µg and 50 µg, respectively. For the same compound, in the series with Naja kaouthia [34], the LD50 entry was “inactive”. Also, the logP in [4] was determined as 1.24.

Regarding `COc1ccc(C=O)c(O)c1`, the “fold change (FC)” value in [8] stood at 3.75; in series [9], 2; in series [11], 10; in series [27], 8.8; in series [14], 9.8; in series [29] it was 1.5. For the same compound, the “fold change (FC)” value in series [16] came to 2; in series [22], 3.2. Further, the result in the series with Naja kaouthia [10] was inactive. In addition, the LD50 was 9 µg in series [13], 10 µg in [17], 150 µg in series [19] and 22 µg in [25]. For the same compound, the outcome in the series on Daboia russelii [30] and with Daboia russelii [20] was Active. In series [4], the logP was 3.19. The values for the MHC in series [18] and in [23] were 50 µg and 10 µg, respectively. The Activity in series [21] worked out at 22 µg; in series [31], 40%; in series [24], 10%; in series [26], 3.5 µg.
